Tested on: MCF-7 breast cancer cells
Experiment: Microarray gene expression analysis (Agilent whole human genome 4 x 44K; compound vs DMSO, LIMMA log2 fold change)
Assay type: cell-based
Conditions: Apoptosis genes

Cn1ncc2c(N3CCOCC3)nc(-c3cccc(O)c3)nc21 [ETP-45658]
HSPD1 log2FC (Gene 3329): 0.324 | HSPE1 log2FC (Gene 3336): -0.110 | HTR2B log2FC (Gene 3357): -0.636 | IAPP log2FC (Gene 3375): -0.105 | ID1 log2FC (Gene 3397): -0.206 | ID3 log2FC (Gene 3399): -0.237 | IFI16 log2FC (Gene 3428): 0.357 | IFI27 log2FC (Gene 3429): -0.362 | IFIT2 log2FC (Gene 3433): 1.724 | IFIT3 log2FC (Gene 3437): 0.389 | IFNG log2FC (Gene 3458): -0.055 | IGBP1 log2FC (Gene 3476): 0.248 | IGF1 log2FC (Gene 3479): 0.046 | IGF1R log2FC (Gene 3480): 0.075 | IGF2R log2FC (Gene 3482): 0.109 | IGFBP3 log2FC (Gene 3486): -0.114 | IKBKB log2FC (Gene 3551): 0.231 | IL1B log2FC (Gene 3553): -0.057 | IL1RN log2FC (Gene 3557): -0.173 | IL2 log2FC (Gene 3558): -0.036 | IL4 log2FC (Gene 3565): -0.060 | IL6 log2FC (Gene 3569): 0.421 | IL6R log2FC (Gene 3570): 0.499 | IL6ST log2FC (Gene 3572): 0.387 | IL7 log2FC (Gene 3574): 0.329 | IL10 log2FC (Gene 3586): -0.054 | TNFRSF9 log2FC (Gene 3604): -0.082 | ING2 log2FC (Gene 3622): 0.424 | INHBA log2FC (Gene 3624): -0.426 | INHBB log2FC (Gene 3625): -1.024 | INS log2FC (Gene 3630): -0.159 | INPP5D log2FC (Gene 3635): -0.052 | INSL3 log2FC (Gene 3640): -0.299 | IRAK1 log2FC (Gene 3654): -0.289 | IRF1 log2FC (Gene 3659): -0.225 | IRF3 log2FC (Gene 3661): -0.604 | IRF5 log2FC (Gene 3663): 1.125 | IRF7 log2FC (Gene 3665): 0.214 | ITGA1 log2FC (Gene 3672): 0.199 | ITGA5 log2FC (Gene 3678): -0.764 | ITGAV log2FC (Gene 3685): 0.634 | ITGB1 log2FC (Gene 3688): 0.722 | ITPR1 log2FC (Gene 3708): 0.270 | JAG2 log2FC (Gene 3714): 0.300 | JAK2 log2FC (Gene 3717): 0.353 | JAK3 log2FC (Gene 3718): -0.320 | JUN log2FC (Gene 3725): -0.912 | KCNMA1 log2FC (Gene 3778): 0.256 | KNG1 log2FC (Gene 3827): -0.104 | KPNA1 log2FC (Gene 3836): -0.177 | KPNB1 log2FC (Gene 3837): 0.586 | KRT8 log2FC (Gene 3856): -0.518 | KRT18 log2FC (Gene 3875): -0.481 | LCK log2FC (Gene 3932): -0.268 | LEP log2FC (Gene 3952): -0.061 | LGALS7 log2FC (Gene 3963): -0.300 | LIG4 log2FC (Gene 3981): 0.100 | LMNA log2FC (Gene 4000): -0.311 | LMNB1 log2FC (Gene 4001): -0.133 | LRP6 log2FC (Gene 4040): -0.141 | LTBR log2FC (Gene 4055): -0.240 | LTK log2FC (Gene 4058): -0.048 | LYN log2FC (Gene 4067): -0.239 | SMAD3 log2FC (Gene 4088): 0.254 | SMAD6 log2FC (Gene 4091): -0.277 | MAL log2FC (Gene 4118): -0.683 | MAX log2FC (Gene 4149): -0.288 | MCF2 log2FC (Gene 4168): 0.044 | MCL1 log2FC (Gene 4170): -1.365 | MDK log2FC (Gene 4192): -0.110 | MDM2 log2FC (Gene 4193): -0.059 | MECP2 log2FC (Gene 4204): -0.162 | MEF2A log2FC (Gene 4205): -0.315 | MEF2C log2FC (Gene 4208): 0.262 | MEF2D log2FC (Gene 4209): -0.705 | MAP3K5 log2FC (Gene 4217): -0.666 | MEN1 log2FC (Gene 4221): -0.273 | KITLG log2FC (Gene 4254): -0.228 | MGMT log2FC (Gene 4255): -0.305 | MIF log2FC (Gene 4282): 0.242 | MLH1 log2FC (Gene 4292): 0.538 | MAP3K9 log2FC (Gene 4293): -0.899 | MAP3K10 log2FC (Gene 4294): 0.297 | MAP3K11 log2FC (Gene 4296): -0.949 | MMP9 log2FC (Gene 4318): -0.727 | MNAT1 log2FC (Gene 4331): 0.729 | MNT log2FC (Gene 4335): 1.624 | MPO log2FC (Gene 4353): 0.046 | CITED1 log2FC (Gene 4435): -0.078 | MSH2 log2FC (Gene 4436): 0.939 | MSX1 log2FC (Gene 4487): -0.324 | MUC1 log2FC (Gene 4582): -0.901 | MUC2 log2FC (Gene 4583): -0.262 | MUC5AC log2FC (Gene 4586): -0.379 | MUSK log2FC (Gene 4593): -0.344 | MX1 log2FC (Gene 4599): 0.147 | MYC log2FC (Gene 4609): 0.554 | MYD88 log2FC (Gene 4615): -0.689 | GADD45B log2FC (Gene 4616): 0.642 | NBN log2FC (Gene 4683): 0.839 | NDUFS1 log2FC (Gene 4719): 0.459 | NF1 log2FC (Gene 4763): 0.412 | NFATC4 log2FC (Gene 4776): 0.112 | NFE2L2 log2FC (Gene 4780): 0.727 | NFKB1 log2FC (Gene 4790): -0.122 | NFKBIA log2FC (Gene 4792): -0.281 | NGFR log2FC (Gene 4804): -0.063 | NKX3-1 log2FC (Gene 4824): -0.261 | NME1 log2FC (Gene 4830): 0.168 | NME2 log2FC (Gene 4831): 0.216 | NME3 log2FC (Gene 4832): -0.214 | NMT1 log2FC (Gene 4836): -0.046 | NODAL log2FC (Gene 4838): -0.110 | NOS3 log2FC (Gene 4846): -0.420 | NOTCH2 log2FC (Gene 4853): 0.166 | NPM1 log2FC (Gene 4869): 0.586 | NPTX1 log2FC (Gene 4884): -0.350 | NPY5R log2FC (Gene 4889): -0.068 | SLC11A2 log2FC (Gene 4891): 0.211 | NRAS log2FC (Gene 4893): -0.204 | NTF3 log2FC (Gene 4908): -1.251 | NTRK2 log2FC (Gene 4915): -0.357 | NR4A2 log2FC (Gene 4929): 0.761 | OCLN log2FC (Gene 4950): 0.639 | OPA1 log2FC (Gene 4976): 0.527 | TNFRSF11B log2FC (Gene 4982): 0.707 | OSM log2FC (Gene 5008): 0.056 | P2RX1 log2FC (Gene 5023): -0.067 | P2RX4 log2FC (Gene 5025): 0.236 | P2RX7 log2FC (Gene 5027): -0.509 | SERPINB2 log2FC (Gene 5055): -0.075 | PAK1 log2FC (Gene 5058): 0.117 | PAK2 log2FC (Gene 5062): -0.170 | PARK2 log2FC (Gene 5071): -0.177 | PAWR log2FC (Gene 5074): 0.858 | PAX3 log2FC (Gene 5077): -0.277 | PAX4 log2FC (Gene 5078): -0.139 | PAX7 log2FC (Gene 5081): -0.260 | PCNT log2FC (Gene 5116): 0.317 | PDCD1 log2FC (Gene 5133): -0.432 | PDCD2 log2FC (Gene 5134): -0.150 | PDE1A log2FC (Gene 5136): -0.227 | PDK1 log2FC (Gene 5163): 0.562 | PDK2 log2FC (Gene 5164): 1.064 | PDK4 log2FC (Gene 5166): 0.792 | PDPK1 log2FC (Gene 5170): 0.541 | PHB log2FC (Gene 5245): -0.244 | SERPINB9 log2FC (Gene 5272): -0.261 | SERPINB10 log2FC (Gene 5273): 0.731 | PIK3CA log2FC (Gene 5290): 0.795 | PIM1 log2FC (Gene 5292): 1.131 | PIK3R1 log2FC (Gene 5295): 0.328 | PLAGL1 log2FC (Gene 5325): 0.310 | PLAGL2 log2FC (Gene 5326): -1.493 | PLK1 log2FC (Gene 5347): -0.287 | PLSCR1 log2FC (Gene 5359): 0.433 | PMAIP1 log2FC (Gene 5366): -1.093

— PMC4303209, “A novel phosphatidylinositol 3-kinase (PI3K) inhibitor directs a potent FOXO-dependent, p53-independent cell cycle arrest phenotype characterized by the differential induction of a subset of FOXO-regulated genes” (Breast Cancer Research : BCR, 2014)
